From patent US12478509B2, “Layered composite for scar treatment and prevention” (THE GOVERNMENT OF THE UNITED STATES AS REPRESENTED BY THE …, priority 2019, dated 2025) come the findings set out here.

For test [1], the system named is human dermal fibroblasts (HDF). Nature of the test: human dermal fibroblast / myofibroblast studies. The class given is cell-based.
Another test concerns p38 MAPK. The test can be described thus: p38 MAPK activation in TGF-β1 stimulated HDF. The class given is cell-based, human.
The test system of test [2] is IL-1β, IL-2, IL-6, IL-13, G-CSF, and MIP-1α. The test can be described thus: inflammatory cytokines.
The subject of a further test is mouse DPT wounds. Nature of the test: neutrophil infiltration in mouse DPT burn wounds. The class given is in vivo.

As to `Cc1ccc(=O)n(-c2ccccc2)c1` [Pirfenidone, 5-methyl-1-phenyl-2-(1H)-pyridone], in test [1], the “HDF transdifferentiation to myofibroblasts” value is “inhibited”; the “collagen deposition and fibrosis-related gene expression” value is “decreased”; the “contractile machinery of activated dermal myofibroblasts” value was “weakened”. Also, the “p38 MAPK activation” value with p38 MAPK is listed as “reduced”. For the same compound, in test [2], the “key inflammatory cytokines IL-1β, IL-2, IL-6, IL-13, G-CSF, and MIP-1α” value was “reduced”. In the test on mouse DPT wounds, the neutrophil infiltration result is given as “decreased”.
